Assay results published in patent US6476051B2, “Antipsychotic heterocycle compounds” (Bristol-Myers Squibb Company, priority 1999, dated 2002).
Counter-ions that a name gives are not always drawn. Like-named read-outs stand apart in the source and are kept apart here.

Assays:
[1] = biological target: T1, human serotonin transporters (Homo sapiens, UniProt P31645); assay: Serotonin transporter binding assay ([3H]-citalopram binding, HEK-hSERT cell membranes)
T1 construct: expressed in transfected cells; host or cells: HEK-293 (HEK-hSERT cells), membrane homogenates
Source text: The compounds of Formula I bind potently to the human 5-HT transporter and inhibit the re-uptake of endogenous serotonin. Selective serotonin reuptake inhibitors (SSRIs) are effective for the treatment of mental depression and have been reported to be useful for treating chronic pain (see: R. W. Fuller, Pharmacologic Modification of Serotonergic Function: Drugs for the Study and Treatment of Psychiatric and Other Disorders,” J. Clin. Psychiatry, 47:4 (Suppl.) April 1986, pp. 4-8). Compounds of the present invention are also envisioned to be useful for treating psychosis, acute mania, mild anxiety states or depression with secondary psychotic episodes. The present compounds are also envisioned to be useful in treating obsessive-compulsive disorders, feeding disorders, anxiety disorders and panic disorders.
HEK-293 cells that stably express human serotonin transporters (HEK-hSERT cells) were grown at 37° C. in 5% CO2 as a monolayer in medium consisting of EMEM supplemented with 10% fetal bovine serum and G418 sulfate (500 μg/ml). To prepare membranes for radioligand binding experiments, cells were rinsed twice with phosphate-buffered saline (138 mM NaCl, 4.1 mM KCl, 5.1 mM Na2PO4, 1.5 mM […], 11.1 mM glucose, pH 7.4). Cells were transferred from plates to polypropylene tubes (16×100 mm), centrifuged at 1,200×g for 5 min and were frozen at −80° C. until assay. Following centrifugation, pellets were resuspended by homogenization in buffer consisting of 50 mM Tris (pH 7.7 at 25° C.), 120 mM NaCl and 5 mM KCl and then centrifuged at 32,000×g for 10 min. Following centrifugation, supernatants were discarded and pellets were resuspended in buffer consisting of 50 mM Tris (pH 7.4 at 25° C.), 150 mM NaCl and 5 mM KCl. Membrane homogenates (200 μl/plate) were incubated with 1 nM [^3H]-citalopram (specific activity=85 Ci/mmol) and increasing concentrations of test compounds for 1 hour at 25° C. in a total volume of 250 μl. The assay buffer consisted of 50 mM Tris (pH 7.4 at 25° C.), 120 mM NaCl and 5 mM KCl (pH 7.4 with conc. HCl). Plates were incubated for 1 hour at 25° C., then filtered through 0.5% PEI treated Whatman GF/B filters using a Brandel cell harvester. Filters were washed three times with 3 ml of ice-cold tris wash buffer. Non-specific binding was defined with 10 μM fluoxetine. Amount of radioligand bound in the presence and absence of competitor was analyzed by plotting (−)log drug concentration versus the amount of radioligand specifically bound. The midpoint of the displacement curve (IC50, nM), signifies the potency. Ki values were calculated using the method of Cheng and Prusoff (1973).
Substances which inhibit the re-uptake of serotonin are recognized to be effective antidepressants (Selective Serotonin Reuptake Inhibitors. Edited by J P Feighner and W F Boyer, Chichester, England. John Wiley & Sons, 1991, pp 89-108). Test data IC50 values lower than 250 nM are considered to reflect activity as an inhibitor of serotonin re-uptake.

[2] = biological target: T2, recombinant human dopamine D2L receptors (Homo sapiens, UniProt P14416); assay: Dopamine binding protocol ([3H]-spiperone binding, HEK-D2L cell membranes)
T2 construct: expressed in transfected cells; host or cells: HEK-293 (HEK-D2L cells), membrane homogenates
Protocol: Like many clinically effective antipsychotic agents, the compounds of Formula I also are antagonists at the human D2L receptor as determined by [^3H]-spiperone binding studies using human D2L receptors stably expressed in HEK-293 cells.
HEK-293 cells that stably express recombinant human dopamine D2L receptors (HEK-D2L cells) were grown at 37° C. in 5% CO2 as a monolayer in medium consisting of EMEM supplemented with 10% fetal bovine serum and G418 sulfate (500 μg/ml). To prepare membranes for radioligand binding experiments, cells were rinsed twice with phosphate-buffered saline (138 mM NaCl, 4.1 mM KCl, 5.1 mM Na2PO4, 1.5 mM […] 11.1 mM glucose, pH 7.4), and incubated for 5-10 min. at 4° C. in hypotonic lysis buffer consisting of 10 mM Tris (pH 7.4) and 5 mM EDTA. Cells were transferred from plates to polypropylene tubes (16×100 mm), homogenized and centrifuged at 32,000×g for 20 min. Following centrifugation, pellets were resuspended by homogenization in buffer consisting of 50 mM Tris (pH 7.7 at 25° C.) and 1 mM EDTA. Homogenates were stored at −80° C. until needed. On the day of an experiment, homogenates were thawed then centrifuged at 32,000×g for 20 min. Following centrifugation, supernatants were discarded and pellets were resuspended in assay buffer consisting of 50 mM Tris (pH 7.4 at 25° C.), 1 mM EDTA and 6 mM MgCl2. Membrane homogenates (˜5 μg) were incubated with 150 pM [^3H]-spiperone (Amersham Life Science) and increasing concentrations of test compounds for 1.5 hours at 22° C. in a total volume of 400 μl. Reactions were stopped by addition of ice-cold assay buffer and filtration over glass fiber filters (Whatman GFB, pre-soaked in 0.05% polyethylenimine) using a microtitre format Brandel cell harvester. Filters were washed with 3 ml of ice-cold assay buffer. Non-specific binding was defined with 2 μM (+)butaclamol. Ki values were calculated using the method of Cheng and Prusoff (1973). Protein concentrations were determined by the method of Bradford (1976) with BSA as a standard.
Test data IC50 values lower than 250 nM are considered to reflect affinity for dopamine D2L receptors.

[3] = [3H]-citalopram, HEK-hSERT membranes, read-out: inhibit the re-uptake of serotonin with Ki
[4] = [3H]-spiperone, HEK-D2L membranes, read-out: dopamine D2L ligands with Ki

T2 sequence (P14416 whole entry): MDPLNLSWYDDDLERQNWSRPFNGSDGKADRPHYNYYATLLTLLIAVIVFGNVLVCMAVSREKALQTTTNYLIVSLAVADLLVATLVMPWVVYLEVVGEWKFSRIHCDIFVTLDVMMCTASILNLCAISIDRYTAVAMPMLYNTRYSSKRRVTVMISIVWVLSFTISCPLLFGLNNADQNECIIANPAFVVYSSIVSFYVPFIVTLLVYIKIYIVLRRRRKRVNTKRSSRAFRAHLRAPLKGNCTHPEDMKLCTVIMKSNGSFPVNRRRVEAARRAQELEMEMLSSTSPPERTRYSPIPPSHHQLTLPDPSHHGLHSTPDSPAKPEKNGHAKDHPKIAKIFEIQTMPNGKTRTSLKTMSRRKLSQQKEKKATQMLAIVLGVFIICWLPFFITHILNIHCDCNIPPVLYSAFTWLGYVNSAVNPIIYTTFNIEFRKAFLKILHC
T1 sequence (P31645 whole entry): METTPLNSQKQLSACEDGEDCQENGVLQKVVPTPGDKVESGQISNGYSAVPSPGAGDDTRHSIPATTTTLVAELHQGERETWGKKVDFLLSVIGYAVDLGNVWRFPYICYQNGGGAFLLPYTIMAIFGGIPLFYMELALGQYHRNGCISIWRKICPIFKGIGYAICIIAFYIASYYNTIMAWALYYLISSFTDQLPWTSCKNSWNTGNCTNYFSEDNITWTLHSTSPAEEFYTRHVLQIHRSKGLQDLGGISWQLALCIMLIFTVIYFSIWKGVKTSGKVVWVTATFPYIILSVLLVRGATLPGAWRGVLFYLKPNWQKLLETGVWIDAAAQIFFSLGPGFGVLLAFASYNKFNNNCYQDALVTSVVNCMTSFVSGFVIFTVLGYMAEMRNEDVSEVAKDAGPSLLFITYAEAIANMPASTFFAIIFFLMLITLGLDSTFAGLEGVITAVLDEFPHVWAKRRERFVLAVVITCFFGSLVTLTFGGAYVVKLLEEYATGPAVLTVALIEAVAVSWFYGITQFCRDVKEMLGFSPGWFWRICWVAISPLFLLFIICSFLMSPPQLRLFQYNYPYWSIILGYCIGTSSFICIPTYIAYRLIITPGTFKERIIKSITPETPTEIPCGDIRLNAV

Row | Ki [1, 3] [nM] | Ki [2, 4] [nM] | Compound | melting point [°C] | Ki [1] [nM] | Ki [2] [nM]
1 | – | – | Cc1nc2cc(OCCCN3CC=C(c4c[nH]c5ccc(C#N)cc45)CC3)ccc2s1 (as salt: HCl) [Example 12, 5-{3-[4-(5-cyanoindol-3-yl)-1,2,5,6-tetrahydropyrid-1-yl]propoxy}-2-methylbenzothiazole] | 263 to 265 | – | –
2 | – | – | Cc1nc2cc(OCCCCN3CC=C(c4c[nH]c5ccc(Cl)cc45)CC3)ccc2s1 [Example 20, 5-{4-[4-(5-chloroindol-3-yl)1,2,5,6-tetrahydropyrid-1-yl]butoxy}-2-methylbenzothiazole] | – | < 100 | < 100
3 | – | – | Cc1nc2cc(OCCCCCN3CC=C(c4c[nH]c5cc(Br)ccc45)CC3)ccc2s1 [Example 27, 5-{5-[4-(6-bromoindol-3-yl)-1,2,5,6-tetrahydropyrid-1-yl]pentoxy}-2-methylbenzothiazole] | – | < 100 | < 100
4 | < 100 | < 100 | COc1ccc(OCCCN2CCC(c3c[nH]c4ccc(C#N)cc34)CC2)cc1OC [Example 10, 3-{1-[3-(3,4-dimethoxyphenoxy)propyl]-4-piperidinyl}-5-cyanoindole] | – | – | –
5 | – | – | Cc1nc2cc(OCCCCCN3CC=C(c4c[nH]c5cccc(F)c45)CC3)ccc2s1 [Example 14, 5-{5-[4-(4-fluoroindol-3-yl)-1,2,5,6-tetrahydropyrid-1-yl]pentoxy}-2-methylbenzothiazole] | – | < 100 | < 100
6 | < 100 | < 100 | N#Cc1ccc2[nH]cc(C3CCN(CCCOc4ccc(F)cc4)CC3)c2c1 [Example 6, 3-{1-[3-(4-fluorophenoxy)propyl]-4-piperidinyl}-5-cyanoindole] | – | – | –
7 | – | – | Cc1nc2cc(OCCCCCN3CC=C(c4c[nH]c5c(F)cccc45)CC3)ccc2s1 [Example 19, 5-{5-[4-(7-fluoroindol-3-yl)-1,2,5,6-tetrahydropyrid-1-yl]pentoxy}-2-methylbenzothiazole] | – | < 100 | < 100
8 | < 100 | < 100 | Cc1nc2cc(OCCCN3CCC(Cc4cc(F)ccc4F)CC3)ccc2s1 [Example 45, 5-(3-{4-[(2,-5-difluorophenyl)methyl]piperidinyl}propoxy)-2-methylbenzothiazole] | – | – | –
9 | < 100 | < 100 | Cc1nc2cc(OCCCN3CCC(Cc4cccc5c4OCO5)CC3)ccc2s1 [Example 41, 5-{3-[4-(2H-benzo[d]1,3-dioxolan-4-ylmethyl)piperidinyl]propoxy}-2-methylbenzothiazole] | – | – | –
10 | – | – | Cc1nc2cc(OCCCN3CC=C(c4c[nH]c5c(F)cccc45)CC3)ccc2s1 [Example 17, 5-{3-[4-(7-fluoroindol-3-yl)-1,2,5,6-tetrahydropyrid-1-yl]propoxy}-2-methylbenzothiazole] | – | < 100 | < 100
11 | – | – | Cc1nc2cc(OCCCCN3CC=C(c4c[nH]c5c(Br)cccc45)CC3)ccc2s1 [Example 29, 5-{4-[4-(7-bromoindol-3-yl)1,2,5,6-tetrahydropyrid-1-yl]butoxy}-2-methylbenzothiazole] | – | < 100 | < 100
12 | – | – | Cc1nc2cc(OCCCN3CC=C(c4c[nH]c5cccc(F)c45)CC3)ccc2s1 [Example 11, 5-{3-[4-(4-fluoroindol-3-yl)-1,2,5,6-tetrahydropyrid-1-yl]propoxy}-2-methylbenzothiazole] | – | < 100 | < 100
13 | – | – | Cc1nc2cc(OCCCN3CC=C(c4c[nH]c5ccc(C#N)cc45)CC3)ccc2s1 [Example 12, 5-{3-[4-(5-cyanoindol-3-yl)-1,2,5,6-tetrahydropyrid-1-yl]propoxy}-2-methylbenzothiazole] | – | < 100 | < 100
14 | – | – | Cc1nc2cc(OCCCCN3CC=C(c4c[nH]c5cc(Cl)ccc45)CC3)ccc2s1 [Example 23, 5-{4-[4-(6-chloroindol-3-yl)1,2,5,6-tetrahydropyrid-1-yl]butoxy}-2-methylbenzothiazole] | – | < 100 | < 100
15 | < 100 | < 100 | COc1cccc(OCCCN2CCC(c3c[nH]c4ccc(C#N)cc34)CC2)c1 [Example 8, 3-{1-[3-(3-methoxyphenoxy)propyl]-4-piperidinyl}-5-cyanoindole] | – | – | –
16 | – | – | Cc1nc2cc(OCCCCCN3CC=C(c4c[nH]c5ccc(Cl)cc45)CC3)ccc2s1 [Example 21, 5-{5-[4-(5-chloroindol-3-yl)-1,2,5,6-tetrahydropyrid-1-yl]pentoxy}-2-methylbenzothiazole] | – | < 100 | < 100
17 | – | – | Cc1nc2cc(OCCCN3CC=C(c4c[nH]c5ccc(Br)cc45)CC3)ccc2s1 [Example 36, 5-{3-[4-(5-bromoindol-3-yl)-1,2,5,6-tetrahydropyrid-1-yl]propoxy}-2-methylbenzothiazole] | – | < 100 | < 100
18 | < 100 | < 100 | N#Cc1ccc2[nH]cc(C3CCN(CCCOc4ccccc4F)CC3)c2c1 [Example 5, 3-{1-[3-(2-fluorophenoxy)propyl]-4-piperidinyl}-5-cyanoindole] | – | – | –
19 | – | – | Cc1nc2cc(OCCCN3CC=C(c4c[nH]c5c(Br)cccc45)CC3)ccc2s1 [Example 28, 5-{3-[4-(7-bromoindol-3-yl)-1,2,5,6-tetrahydropyrid-1-yl]propoxy}-2-methylbenzothiazole] | – | < 100 | < 100
20 | – | – | Cc1nc2cc(OCCCCN3CC=C(c4c[nH]c5ccc(F)cc45)CC3)ccc2s1 [Example 15, 5-{4-[4-(5-fluoroindol-3-yl)1,2,5,6-tetrahydropyrid-1-yl]butoxy}-2-methylbenzothiazole] | – | < 100 | < 100
21 | – | – | Cc1nc2cc(OCCCCN3CC=C(c4c[nH]c5cc(Br)ccc45)CC3)ccc2s1 [Example 26, 5-{4-[4-(6-bromoindol-3-yl)1,2,5,6-tetrahydropyrid-1-yl]butoxy}-2-methylbenzothiazole] | – | < 100 | < 100
